For nine molecules, IC50 and MIC results are on record in US9073821B2, “Hydroxamic acid derivative” (priority 2010, dated 2015).

≈ marks a conversion by molar mass, not a printed value. Where two headings read alike, the source gives them in different places.

A word on the MIC: it is the lowest concentration that inhibits growth of the organism.

The target in assay [1] is E. coli LpxC enzyme (Escherichia coli (strain K12), UniProt P0A725). Briefly: Inhibitory activity on E. coli LpxC enzyme (fluorescamine assay). Format: biochemical. The following applies: Table 4. The protocol: Test 2: Evaluation of the Inhibitory Activity on E. coli LpxC Enzyme
An inhibition curve was constructed for each test compound by performing the aforementioned reaction at varying concentrations of the test compound. From this inhibition curve, the concentration of the test compound at which the formation of the reaction product was suppressed by 50% was determined as the IC50 of the test compound, which was an index for the inhibitory activity on E. coli LpxC enzyme.

Assay [2] concerns E. coli strain ATCC25922. The experiment in a line: Antimicrobial activity, MIC by broth microdilution. Format: cell-based. To be noted: Escherichia coli, Table 4, 35° C., 18 hours, read-out: E. coli ATCC 25922 strain MIC. An excerpt:
(§1) Test 3: Evaluation of Antimicrobial Activity For minimum inhibitory concentration (MIC) measurement, the following broth microdilution method was applied as adapted from the standard procedure recommended by the CLSI (Clinical and Laboratory Standards Institute). The bacteria used were Pseudomonas aeruginosa strain TS88 (clinical isolate), E. coli strain ATCC25922, and Klebsiella pneumoniae strain ATCC13883. After culture overnight on a heart infusion agar medium, the cells of a test bacterium were scraped off and suspended to give a turbidity of level 0.5 on the McFarland scale; the suspension was then diluted 10 fold to prepare an inoculum solution. A 0.005 mL aliquot of the inoculum solution was inoculated in a cation-adjusted Mueller-Hinton broth medium containing a test compound and cultured at 35° C. for 18 hours. A minimum drug concentration at which no cell growth was visible to the naked eye was designated as MIC.

Assay [3] concerns Klebsiella pneumoniae strain ATCC13883. The experiment in a line: Antimicrobial activity, MIC by broth microdilution. To be noted: Table 4, 35° C., 18 hours, read-out: Klebsiella pneumoniae ATCC 13883 strain MIC. Format: cell-based.
Text: as §1
For orientation: Dilution methods test growth across graded concentrations, often in twofold steps.

The subject of assay [4] is Pseudomonas aeruginosa strain TS88 (clinical isolate). Briefly: Antimicrobial activity, MIC by broth microdilution. The following applies: Table 4, 35° C., 18 hours, read-out: Pseudomonas aeruginosa TS88 strain MIC. Format: cell-based.
Text: as §1

Assay [5] concerns the target Pseudomonas aeruginosa LpxC enzyme (Pseudomonas aeruginosa (strain ATCC 15692 / DSM 22644 / CIP 104116 / JCM 14847 / LMG 12228 / 1C / PRS 101 / PAO1), UniProt P47205). Briefly: biochemical. Format: biochemical.

Sequence of E. coli LpxC enzyme (P0A725 whole entry): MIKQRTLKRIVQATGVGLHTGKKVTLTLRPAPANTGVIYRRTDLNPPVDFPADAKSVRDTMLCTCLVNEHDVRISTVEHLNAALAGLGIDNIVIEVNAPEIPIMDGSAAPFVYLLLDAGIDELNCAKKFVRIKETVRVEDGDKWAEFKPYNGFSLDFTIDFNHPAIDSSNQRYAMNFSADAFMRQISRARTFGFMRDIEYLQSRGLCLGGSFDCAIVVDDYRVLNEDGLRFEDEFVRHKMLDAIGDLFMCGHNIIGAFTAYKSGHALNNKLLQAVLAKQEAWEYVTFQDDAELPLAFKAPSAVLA

As for `CCOc1ccc(-c2ccc(C(=O)N(C)[C@@](C)(C(=O)NC)C(=O)NO)cc2)cc1` [Compound 399, (2S)-2-{[(4′-ethoxybiphenyl-4-yl)carbonyl](methyl)amino}-N-hydroxy-N′,2-dimethylpropanediamide], the IC50 in assay [1] was determined as 13 nM. For the same molecule, the MIC in assay [2] was found to be 0.125 µg/mL (≈ 0.313 µM); in assay [3], 0.5 µg/mL (≈ 1.25 µM); in assay [4] it was 0.5 µg/mL (≈ 1.25 µM).
On to `CNC(=O)[C@@](C)(C(=O)NO)N(C)C(=O)c1ccc(-c2ccc3c(ccn3C)c2)cc1` [Compound 402, (2S)-N-hydroxy-N′,2-dimethyl-2-(methyl {[4-(1-methyl-1H-indol-5-yl)phenyl]carbonyl}amino)propanediamide], for which the IC50 in assay [1] is 4.9 nM. The MIC in assay [2] came to 0.125 µg/mL (≈ 0.306 µM); in assay [3] it was 1 µg/mL (≈ 2.45 µM); in assay [4], 1 µg/mL (≈ 2.45 µM).
Take `CNC(=O)C(C(=O)NO)N(C)C(=O)c1ccc(-c2ccc(C#CCOC)cc2)cc1` (centres unmarked) [Compound 405, N-hydroxy-2-[{[4′-(3-methoxyprop-1-yn-1-yl)biphenyl-4-yl]carbonyl}(methyl)amino]-N′-methylpropanediamide]: the IC50 in assay [5] (Table 4, read-out: Pseudomonas aeruginosa LpxC IC50) is 2.9 nM; in assay [5] (inhibitory activity on Pseudomonas aeruginosa LpxC enzyme, class symbols A/B/C, read-out: Enzyme inhibitory activity) it was below 10 nM. Further, the MIC in assay [2] came out at 0.5 µg/mL (≈ 1.22 µM); in assay [3], 4 µg/mL (≈ 9.77 µM); in assay [4] it was 0.5 µg/mL (≈ 1.22 µM).
`CNC(=O)[C@@](C)(C(=O)NO)N(C)C(=O)c1ccc(C#Cc2ccc(CCN3CCOCC3)cc2)cc1` [Compound 410, (2S)-N-hydroxy-N′,2-dimethyl-2-(methyl {[4-({4-[2-(morpholin-4-yl)ethyl]phenyl}ethynyl)phenyl]carbonyl}amino)propanediamide] showed an IC50 in assay [1] of 78 nM. Besides, the MIC stood at 0.25 µg/mL (≈ 0.508 µM) in assay [2], 1 µg/mL (≈ 2.03 µM) in assay [3] and 1 µg/mL (≈ 2.03 µM) in assay [4].
With `CNC(=O)C(C(=O)NO)N(C)C(=O)c1ccc(C#CC#CC2CC2)cc1` (centres unmarked) [Compound 507, 2-({[4-(4-Cyclopropylbuta-1,3-diyn-1-yl)phenyl]carbonyl}(methyl)amino)-N-hydroxy-N′-methylpropanediamide], in assay [1], the IC50 was found to be 12 nM. Moreover, the MIC in assay [2] turned out to be 0.125 µg/mL (≈ 0.354 µM); in assay [3] it was 1 µg/mL (≈ 2.83 µM); in assay [4] it was 0.25 µg/mL (≈ 0.707 µM).
For `CNC(=O)[C@@](C)(C(=O)NO)N(C)C(=O)c1ccc(C#Cc2ccc(CNCCF)cc2)cc1` [Compound 554, (2S)-2-[({4-[(4-{[(2-fluoroethyl)amino]methyl}phenyl)ethynyl]phenyl}carbonyl)(methyl)amino]-N-hydroxy-N′,2-dimethylpropanediamide], in that order: 120 nM, 0.5 µg/mL (≈ 1.1 µM), 1 µg/mL (≈ 2.2 µM) and 0.5 µg/mL (≈ 1.1 µM).
Turning to `CNC(=O)[C@@](C)(C(=O)NO)N(C)C(=O)c1ccc(C#Cc2ccc(CN3CC(OCCF)C3)cc2)cc1` [Compound 559, (2S)-2-[({4-[(4-{[3-(2-fluoroethoxy)azetidin-1-yl]methyl}phenyl)ethynyl]phenyl}carbonyl)(methyl)amino]-N-hydroxy-N′,2-dimethylpropanediamide], the MIC in assay [2] was 0.25 µg/mL (≈ 0.49 µM); in assay [3], 1 µg/mL (≈ 1.96 µM); in assay [4] it was 1 µg/mL (≈ 1.96 µM).
Regarding `CCOC1CN(Cc2ccc(C#Cc3ccc(C(=O)N(C)C(C(=O)NC)C(=O)NO)cc3)cc2F)C1` (centres unmarked) [Compound 563, 2-[{[4-({4-[(3-ethoxyazetidin-1-yl)methyl]-3-fluorophenyl}ethynyl)phenyl]carbonyl}(methyl)amino]-N-hydroxy-N′-methylpropanediamide], the IC50 in assay [5] (class symbols A/B/C by IC50, Table 3, read-out: Enzyme inhibitory activity (inhibitory activity on Pseudomonas aeruginosa LpxC enzyme)) was below 10 nM. The values for the MIC in assay [2], in assay [3] and in assay [4] were 1 µg/mL (≈ 2.01 µM), 4 µg/mL (≈ 8.06 µM) and 1 µg/mL (≈ 2.01 µM), respectively.
In the case of `CNC(=O)[C@@](C)(C(=O)NO)N(C)C(=O)c1ccc(C#Cc2ccc(CN3CCC(OC)CC3)cc2)cc1` [Compound 565, (2S)-N-hydroxy-2-[{[4-({4-[(4-methoxypiperidin-1-yl)methyl]phenyl}ethynyl)phenyl]carbonyl}(methyl)amino]-N′,2-dimethylpropanediamide], the MIC in assay [2] was 0.5 µg/mL (≈ 0.987 µM); in assay [3], 2 µg/mL (≈ 3.95 µM); in assay [4] it was 1 µg/mL (≈ 1.97 µM).
